According to ChEMBL document CHEMBL3352078, “Repurposing human PDE4 inhibitors for neglected tropical diseases: design, synthesis and evaluation of cilomilast analogues as Trypanosoma brucei PDEB1 inhibitors” (Bioorg Med Chem Lett, 2014):

Assays:
[1] = target: T1, Class 1 phosphodiesterase PDEB1 (Trypanosoma brucei) (UniProt Q8WQX9); assay: Inhibition of Trypanosoma brucei recombinant PDEB1 at 10 uM pre-incubated for 5 mins prior to substrate addition
T1 sequence (whole entry): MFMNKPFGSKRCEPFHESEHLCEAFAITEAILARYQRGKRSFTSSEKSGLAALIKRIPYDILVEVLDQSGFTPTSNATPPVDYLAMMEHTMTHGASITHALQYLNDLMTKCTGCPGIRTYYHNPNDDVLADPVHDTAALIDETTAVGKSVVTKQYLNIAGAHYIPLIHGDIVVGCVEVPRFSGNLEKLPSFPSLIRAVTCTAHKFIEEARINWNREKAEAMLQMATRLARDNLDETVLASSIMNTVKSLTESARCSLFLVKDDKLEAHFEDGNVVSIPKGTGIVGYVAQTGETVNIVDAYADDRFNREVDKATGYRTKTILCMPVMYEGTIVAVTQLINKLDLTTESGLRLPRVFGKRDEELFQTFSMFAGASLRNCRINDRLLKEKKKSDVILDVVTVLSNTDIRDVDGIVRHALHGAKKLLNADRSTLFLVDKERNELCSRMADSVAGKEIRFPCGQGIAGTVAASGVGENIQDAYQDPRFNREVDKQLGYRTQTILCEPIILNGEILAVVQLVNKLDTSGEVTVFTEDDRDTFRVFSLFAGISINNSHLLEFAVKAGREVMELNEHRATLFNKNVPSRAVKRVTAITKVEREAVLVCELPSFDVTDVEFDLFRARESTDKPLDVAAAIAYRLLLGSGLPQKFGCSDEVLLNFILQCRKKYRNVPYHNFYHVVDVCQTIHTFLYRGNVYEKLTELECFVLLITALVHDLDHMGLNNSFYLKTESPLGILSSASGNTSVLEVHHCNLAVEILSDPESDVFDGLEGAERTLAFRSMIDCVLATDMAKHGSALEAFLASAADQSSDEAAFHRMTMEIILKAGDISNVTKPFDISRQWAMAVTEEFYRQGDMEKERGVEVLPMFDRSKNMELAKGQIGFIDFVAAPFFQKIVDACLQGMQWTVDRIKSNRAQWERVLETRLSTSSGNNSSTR

[2] = target: T2, Class 1 phosphodiesterase PDEB1 (Trypanosoma brucei, UniProt Q8WQX9); assay: Inhibition of Trypanosoma brucei recombinant PDEB1 pre-incubated for 5 mins prior to substrate addition
T2 sequence (Q8WQX9 whole entry): T1 sequence (whole entry)

[3] = Cytotoxicity against mouse NIH/3T3 cells by Alamar blue cell viability assay; format: cell-based, NIH3T3; conditions: read-out: TC50 (the source's name)
[4] = system: Trypanosoma brucei; assay: Antiparasitic activity against Trypanosoma brucei after 22 to 24 hrs by Alamar blue cell viability assay; format: functional, organism-based
[5] = Inhibition of Trypanosoma brucei PDEB2

COc1ccc([C@]2(C#N)CC[C@H](C(=O)O)CC2)cc1OCc1ccccc1
inhibition [1]: 20%

COc1ccc([C@]2(C#N)CC[C@@H](C(=O)O)CC2)cc1OCCCCCOc1ccccc1
inhibition [1]: 54%
IC50 [2]: 9.8 µM

COc1ccc([C@]2(C#N)CC[C@@H](C(=O)O)CC2)cc1OCCCCOc1ccc(F)cc1
inhibition [1]: 79%
IC50 [2]: 9.2 µM

COc1ccc([C@]2(C#N)CC[C@H](C(=O)O)CC2)cc1OC1CCCC1
inhibition [1]: 9.3%

COc1ccc(C2(C#N)CCNCC2)cc1OC1CCCC1
inhibition [1]: 19%

COc1ccc(OCCCCOc2cc([C@]3(C#N)CC[C@@H](C(=O)O)CC3)ccc2OC)cc1
inhibition [1]: 79%
IC50 [2]: 3.5 µM

COc1ccc([C@]2(C#N)CC[C@@H](C(=O)O)CC2)cc1OCc1ccccn1
inhibition [1]: 33%

COc1ccc([C@]2(C#N)CC[C@@H](C(=O)OC)CC2)cc1OCc1ccccc1
inhibition [1]: 40%

COc1ccc([C@]2(C#N)CC[C@@H](C(=O)O)CC2)cc1OC1CCCC1 [CILOMILAST]
CC50 [3]: > 50 µM
IC50 [2]: 16 µM
EC50 [4]: > 50 µM

COc1ccc([C@]2(C#N)CC[C@@H](C(=O)O)CC2)cc1OCc1ccncc1
inhibition [1]: 11%

COc1ccc([C@]2(C#N)CC[C@@H](C(=O)O)CC2)cc1OCCCOc1ccccc1
inhibition [1]: 66%
IC50 [2]: 11 µM

COc1ccc([C@]2(C#N)CC[C@@H](C(=O)O)CC2)cc1OCCCCOc1ccc(C#N)cc1
inhibition [1]: 87%
IC50 [2]: 3.6 µM

COc1ccc([C@]2(C#N)CC[C@@H](C(=O)O)CC2)cc1OCCCCOc1ccc(-c2nn[nH]n2)cc1
inhibition [1]: 69%
IC50 [2]: 7.9 µM

COc1ccc([C@]2(C#N)CC[C@@H](C(=O)OC)CC2)cc1OC1CCCC1
inhibition [1]: 31%

COc1ccc([C@]2(C#N)CC[C@@H](C(=O)O)CC2)cc1OCCCCOc1ccccc1
inhibition [1]: 96%
CC50 [3]: > 50 µM
EC50 [4]: 26 µM
IC50 [5]: 2.1 µM

COc1ccc([C@]2(C#N)CC[C@@H](C(=O)O)CC2)cc1OCc1ccccc1
inhibition [1]: 77%
IC50 [2]: 12 µM

COc1ccc([C@]2(C#N)CC[C@H](C(=O)OC)CC2)cc1OC1CCCC1
inhibition [1]: 26%

COc1ccc([C@]2(C#N)CC[C@@H](C(=O)O)CC2)cc1OCCCCOc1ccc(C)cc1
inhibition [1]: 74%
IC50 [2]: 4.9 µM

COc1ccc([C@]2(C#N)CC[C@H](C(=O)OC)CC2)cc1OCc1ccccc1
inhibition [1]: 28%

CCOC(=O)CN1CCC(C#N)(c2ccc(OC)c(OC3CCCC3)c2)CC1
inhibition [1]: 6%

COc1ccc(C2(C#N)CCN(CC(=O)O)CC2)cc1OC1CCCC1
inhibition [1]: 11%
